From ChEMBL document CHEMBL1144243, “Isolation, structure, and antibacterial activity of thiazomycin A, a potent thiazolyl peptide antibiotic from Amycolatopsis fastidiosa” (Bioorg Med Chem, 2008)
Values after ≈ are worked out from the molar mass of the structure shown. Active and inactive are the calls of the source. The rule behind the calls is not given here.

Tests used:
Haemophilus influenzae = experiment: Antibacterial activity against Haemophilus influenzae MSD2261 after 18 to 20 hrs by serial dilution method; assay type: functional
Escherichia coli = experiment: Antibacterial activity against Escherichia coli MB2884 after 18 to 20 hrs by serial dilution method; assay type: functional
Candida albicans = experiment: Antimicrobial activity against Candida albicans MY1055 after 18 to 20 hrs by serial dilution method; assay type: functional
Streptococcus pneumoniae = experiment: Antibacterial activity against penicillin-susceptible Streptococcus pneumoniae CL2883 after 18 to 20 hrs by serial dilution method; assay type: functional
Enterococcus faecalis = experiment: Antibacterial activity against vancomycin-susceptible Enterococcus faecalis CL8516 after 18 to 20 hrs by serial dilution method; assay type: functional
Staphylococcus aureus [1] = experiment: Antibacterial activity against methicillin-susceptible Staphylococcus aureus MB2865 after 18 to 20 hrs by serial dilution method; assay type: functional
Staphylococcus aureus [2] = experiment: Antibacterial activity against methicillin-resistant Staphylococcus aureus MB5393 containing COL plasmid after 18 to 20 hrs by serial dilution method; assay type: functional
Staphylococcus aureus [3] = experiment: Antibacterial activity against Staphylococcus aureus EP167 after 18 to 20 hrs by serial dilution method; assay type: functional
Staphylococcus aureus [4] = experiment: Inhibition of protein synthesis in Staphylococcus aureus EP167 after 30 mins by scintillation counter; assay type: functional, organism-based; settings: 0.5 h
Staphylococcus aureus [5] = experiment: Inhibition of RNA synthesis in Staphylococcus aureus EP167 after 30 mins by scintillation counter; assay type: functional, organism-based
Staphylococcus aureus [6] = experiment: Inhibition of DNA synthesis in Staphylococcus aureus EP167 after 30 mins by scintillation counter; assay type: functional, organism-based
Staphylococcus aureus [7] = experiment: Inhibition of peptidoglycan synthesis in Staphylococcus aureus EP167 after 30 mins by scintillation counter; assay type: functional, organism-based
Staphylococcus aureus [8] = experiment: Inhibition of phospholipid synthesis in Staphylococcus aureus EP167 after 30 mins by scintillation counter; assay type: functional, organism-based
[9] = Aqueous solubility of the compound; assay type: physicochemical; settings: water

Q: Which MIC (Haemophilus influenzae) does the source give for `CC(=O)NC[C@H]1CN(c2ccc(N3CCOCC3)c(F)c2)C(=O)O1` [LINEZOLID] here?
A: Its MIC is over 32 µg/mL.

Q: And the MIC (Escherichia coli)?
A: Its MIC is over 32 µg/mL.

Q: And the MIC (Candida albicans)?
A: Its MIC is over 32 µg/mL.

Q: Which MIC (Streptococcus pneumoniae) does the source give for `C=C(NC(=O)c1csc(-c2nc3c(cc2O)-c2nc(cs2)C(=O)N[C@@H]([C@@H](C)O)C(=O)N/C(=C(\C)OC)c2nc(cs2)C(=O)N[C@@H]2c4nc(cs4)C(=O)N[C@@H](COC(=O)c4c5c6c(cccc6n4O)COC(=O)[C@@H](O[C@H]4C[C@]6(C)OC(C)N(C)[C@@H]6[C@H](C)O4)[C@H]2OC5)c2nc-3cs2)n1)C(N)=O` (some centres undefined) [THIAZOMYCIN A] here?
A: The MIC was 0.002 µg/mL (≈ 0.00138 µM).

Q: And the MIC (Enterococcus faecalis)?
A: The MIC was 0.25 µg/mL (≈ 0.172 µM).

Q: And the MIC (Staphylococcus aureus [1])?
A: The MIC was 0.06 µg/mL (≈ 0.0414 µM).

Q: And the MIC (Staphylococcus aureus [2])?
A: Its MIC is 0.06 µg/mL (≈ 0.0414 µM).

Q: And the MIC (Staphylococcus aureus [3])?
A: Its MIC is 0.004 µg/mL (≈ 0.00276 µM).

Q: And the MIC (Haemophilus influenzae)?
A: Its MIC is over 32 µg/mL.

Q: What about the MIC (Escherichia coli) of the same compound?
A: Its MIC is over 32 µg/mL.

Q: And the MIC (Candida albicans)?
A: The MIC was over 32 µg/mL.

Q: What about the IC50 (Staphylococcus aureus [4]) of the same compound?
A: The IC50 was 0.7 µg/mL (≈ 0.483 µM).

Q: And the Activity (Staphylococcus aureus [5])?
A: The Activity was “inactive”.

Q: And the Activity (Staphylococcus aureus [6])?
A: Its Activity is “inactive”.

Q: What about the Activity (Staphylococcus aureus [7]) of the same compound?
A: Its Activity is “inactive”.

Q: And the Activity (Staphylococcus aureus [8])?
A: Its Activity is “inactive”.

Q: What about the solubility [9] of the same compound?
A: Its solubility is under 100 µg/mL.

Q: With `C=C(NC(=O)c1csc(-c2nc3c(cc2O)-c2nc(cs2)C(=O)N[C@@H]([C@@H](C)O)C(=O)N/C(=C(\C)OC)c2nc(cs2)C(=O)N[C@@H]2c4nc(cs4)C(=O)N[C@@H](COC(=O)c4c5c6c(cccc6n4O)COC(=O)[C@@H](O[C@H]4C[C@]6(C)OCN(C)[C@@H]6[C@H](C)O4)[C@H]2OC5)c2nc-3cs2)n1)C(N)=O` [THIAZOMYCIN] as the compound, how does the MIC (Streptococcus pneumoniae) read?
A: The MIC was 0.004 µg/mL (≈ 0.00279 µM).

Q: What about the MIC (Enterococcus faecalis) of the same compound?
A: The MIC was 0.064 µg/mL (≈ 0.0446 µM).

Q: What about the MIC (Staphylococcus aureus [1]) of the same compound?
A: The MIC was 0.016 µg/mL (≈ 0.0111 µM).

Q: What about the MIC (Staphylococcus aureus [2]) of the same compound?
A: Its MIC is 0.032 µg/mL (≈ 0.0223 µM).

Q: And the MIC (Haemophilus influenzae)?
A: The MIC was over 32 µg/mL.

Q: What about the MIC (Escherichia coli) of the same compound?
A: Its MIC is over 32 µg/mL.

Q: What about the MIC (Candida albicans) of the same compound?
A: The MIC was over 32 µg/mL.
